Experimental data taken from US12643912B2, “Macrocyclic compounds, a process for their preparation and pharmaceutical compositions containing them” (LES LABORATOIRES SERVIER, priority 2020, dated 2026).
Like-named read-outs stand apart in the source and are kept apart here.

How the values were obtained:
[1] = tested on: Nrf2 (Keap1-NRF2 nuclear translocation); assay: U2OS translocation assay (PathHunter U2OS Keap1-NRF2 Nuclear Translocation Cell Line); assay type: cell-based
Method in brief: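 PathHunter U2OS line expressing Nrf2-enzyme-donor fusion and nuclear acceptor enzyme, 7 500 cells/well in Opti-MEM, 1% FBS. Compounds incubated 3 h at 37° C. Luminescence after 60 min with detection reagent, normalized between 1% DMSO and 10 μM andrographolide.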

Keap1 (A321-C624) (h) = target: T1, Keap1 (A321-C624) (h) (Homo sapiens, UniProt Q14145); assay: Surface Plasmon Resonance binding assay to Kelch domain of KEAP1; conditions: Biacore T200, 25° C., immobilized His-Thromb-KEAP1(A321-C624), single cycle kinetics, KD=kd/ka from 1:1 fit; read-out: Keap1 (A321-C624) (h) direct/SPR (KD)
T1 construct: His-Thromb-KEAP1(A321-C624) acquired from Novalix (batch PU-P01) was immobilized covalently by amine coupling; His tag (N); thrombin cleavage site (Thromb) (N); purchased Novalix batch PU-P01
T1 sequence (Q14145 321-624): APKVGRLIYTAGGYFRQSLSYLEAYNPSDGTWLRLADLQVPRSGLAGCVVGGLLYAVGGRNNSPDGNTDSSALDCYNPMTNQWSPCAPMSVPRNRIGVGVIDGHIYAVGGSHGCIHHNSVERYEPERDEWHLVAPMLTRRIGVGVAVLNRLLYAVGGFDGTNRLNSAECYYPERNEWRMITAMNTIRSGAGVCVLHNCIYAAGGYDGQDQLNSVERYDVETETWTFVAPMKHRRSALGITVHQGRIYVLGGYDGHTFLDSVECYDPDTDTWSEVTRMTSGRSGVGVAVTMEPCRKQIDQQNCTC
Method: EXAMPLE 85: SURFACE PLASMON RESONANCE
Binding assay to Kelch domain of KEAP1 was performed by Surface Plasmon Resonance (SPR) on a Biacore T200 (GE Healthcare) at 25° C. using CM5 chip. His-Thromb-KEAP1(A321-C624) acquired from Novalix (batch PU-P01) was immobilized covalently by amine coupling using standard wizard protocol, at a concentration of 20 μg/mL in sodium acetate pH 5.5. The ligand was captured until 1250 RU was reached. Amine blank is used as the reference flow cell. Binding of analyte to the ligand was monitored in real time with associations of 180 seconds and a dissociation of 720 seconds. Association (ka) and dissociation (kd) rates were fitted with a simple 1:1 kinetic interaction model using Biacore T200 Evaluation Software (GE Healthcare). The equilibrium constant (KD=kd/ka) was calculated from these fitted parameters. […] The Biacore binding assay was performed with a flowrate of 50 μL/min using a running buffer of 10 mM HEPES (pH 7.4), 150 mM NaCl, 3 mM EDTA, 1 mM TCEP, 0.05% P20,5% DMSO. Double subtraction was used by subtracting both reference flow cell and previous blank cycle (with running buffer). Solvent correction was applied to correct DMSO bulk effect.

[2] = read-out: CELLULAR U2OS EC50, U2OS Keap1-NRF2 nuclear translocation cells, 3 h incubation, luminescence, normalized between 1% DMSO and 10 μM andrographolide
[3] = Homo sapiens, U2OS, 3 h, read-out: CELLULAR U2OS EC50 (nM), U2OS Keap1-NRF2 nuclear translocation cells, 3 h incubation, luminescence, normalized between 1% DMSO and 10 μM andrographolide

`COc1c(Cl)cc2cc1CN1Cc3cc(ccc3OS1(=O)=O)OCCCCn1nnc3c(C)c(ccc31)C2CC(=O)O` (single isomer, unassigned) [Example 37b, [5-Chloro-4-methoxy-31-methyl-27,27-dioxo-21,26-dioxa-27λ^6-thia-1,14,15,16-tetraazahexacyclo[20.5.3.1^3,70.1^9,130.0^12,160.0^25,29]dotriaconta-3(32),4,6,9(31),10,12,14,22,24,29-decaen-8-yl]acetic acid] gave an EC50 [1, 2] of over 3160 nM and a Kd (Keap1 (A321-C624) (h)) of 529 nM.

With `Cc1ccc2cc1CN1Cc3c(ccc(c3Cl)OCCCCn3nnc4c(C)c(cc(Cl)c43)[C@@H]2CC(=O)O)OS1(=O)=O` [Example 51, [(8R)-11,30-Dichloro-4,31-dimethyl-27,27-dioxo-21,26-dioxa-27λ^6-thia-1,14,15,16-tetraazahexacyclo[20.5.3.1^3,70.1^9,130.0^12,160.0^25,29]dotriaconta-3(32),4,6,9(31),10,12,14,22,24,29-decaen-8-yl]acetic acid] the EC50 [1, 3] was 103 nM and the Kd (Keap1 (A321-C624) (h)) was 2.03 nM.

`Cc1ccc2cc1[C@@H](C)N1Cc3cc(ccc3OS1(=O)=O)OCCCCCn1nnc3c(C)c(ccc31)[C@H]2CC(=O)O` [Example 20a, [(2R,8S)-2,4,32-Trimethyl-28,28-dioxo-22,27-dioxa-28λ^6-thia-1,14,15,16-tetraazahexacyclo[21.5.3.1^3,70.1^9,130.0^12,160.0^26,30]tritriaconta-3(33),4,6,9(32),10,12,14,23,25,30-decaen-8-yl]acetic acid] showed an EC50 [1, 3] of 1.99 nM and a Kd (Keap1 (A321-C624) (h)) of 0.549 nM.

`Cc1ccc2cc1[C@@H](C)N1Cc3cc(ccc3OS1(=O)=O)OCCCCn1nnc3c(C)c(ccc31)[C@H]2CC(=O)O` [Example 3b, [(2R,8S)-2,4,31-trimethyl-27,27-dioxo-21,26-dioxa-27λ^6-thia-1,14,15,16-tetraazahexacyclo[20.5.3.1^3,70.1^9,130.0^12,160.0^25,29]dotriaconta-3(32),4,6,9(31),10,12,14,22,24,29-decaen-8-yl]acetic acid] was tested, and the EC50 [1, 3] was 10.6 nM and the Kd (Keap1 (A321-C624) (h)) was 1.05 nM.

For `Cc1ccc2cc1CN1Cc3cc(ccc3OS1(=O)=O)OCCCCn1cc(nn1)C(=O)NC2CC(=O)O` (single isomer, unassigned) [Example 72b, [4-Methyl-10,25,25-trioxo-19,24-dioxa-25λ^6-thia-1,9,12,13,14-pentaazapentacyclo[18.5.3.1^3,70.1^11,140.0^23,27]triaconta-3(30),4,6,11(29),12,20,22,27-octaen-8-yl]acetic acid], the EC50 [1, 2] was over 3160 nM and the Kd (Keap1 (A321-C624) (h)) was 730 nM.

For `Cc1ccc2cc1CN1Cc3cc(ccc3OS1(=O)=O)OCCCCn1nnc3c(C)c(cc(Cl)c31)[C@@H]2CC(=O)O` [Example 50, [(8R)-11-Chloro-4,31-dimethyl-27,27-dioxo-21,26-dioxa-27λ^6-thia-1,14,15,16-tetraazahexacyclo[20.5.3.1^3,70.1^9,130.0^12,160.0^25,29]dotriaconta-3(32),4,6,9(31),10,12,14,22,24,29-decaen-8-yl]acetic acid], the EC50 [1, 3] was 139 nM and the Kd (Keap1 (A321-C624) (h)) was 5.97 nM.

With `COc1cc2cc(c1OC)CN1Cc3cc(ccc3OS1(=O)=O)OCCCCn1nnc3c(C)c(ccc31)C2CC(=O)O` (single isomer, unassigned) [Example 35a, [4,5-Dimethoxy-31-methyl-27,27-dioxo-21,26-dioxa-27λ^6-thia-1,14,15,16-tetraazahexacyclo[20.5.3.1^3,70.1^9,130.0^12,160.0^25,29]dotriaconta-3(32),4,6,9(31),10,12,14,22,24,29-decaen-8-yl]acetic acid] the EC50 [1, 3] was over 3160 nM and the Kd (Keap1 (A321-C624) (h)) was 33600 nM.

Work on `COc1cc2c3cc1OCCCCn1nnc4c(C)c(ccc41)C(CC(=O)O)c1ccc(C)c(c1)CN(C3)S(=O)(=O)O2` (single isomer, unassigned) [Example 25b, [23-Methoxy-4,31-dimethyl-27,27-dioxo-21,26-dioxa-27λ^6-thia-1,14,15,16-tetraazahexacyclo[20.5.3.1^3,70.1^9,130.0^12,160.0^25,29]dotriaconta-3(32),4,6,9(31),10,12,14,22,24,29-decaen-8-yl]acetic acid] yielded an EC50 [1, 2] of 56.8 nM and a Kd (Keap1 (A321-C624) (h)) of 1.16 nM.

For `Cc1ccc2cc1CN1Cc3cc(ccc3OS1(=O)=O)OCCCCCCn1nnc3c(C)c(ccc31)C2CC(=O)O` (single isomer, unassigned) [Example 11b, [4,33-Dimethyl-29,29-dioxo-23,28-dioxa-29λ^6-thia-1,14,15,16-tetraazahexacyclo[22.5.3.1^3,70.1^9,130.0^12,160.0^27,31]tetratriaconta-3(34),4,6,9(33),10,12,14,24,26,31-decaen-8-yl]acetic acid], the EC50 [1, 2] was 13.1 nM and the Kd (Keap1 (A321-C624) (h)) was 0.778 nM.

Work on `COc1ccc2cc1[C@@H](C)N1Cc3cc(ccc3OS1(=O)=O)OCCCCCCn1nnc3c(C)c(ccc31)[C@H]2CC(=O)O` [Example 40a, [(2R,8S)-4-methoxy-2,33-dimethyl-29,29-dioxo-23,28-dioxa-29λ^6-thia-1,14,15,16-tetraazahexacyclo[22.5.3.1^3,70.1^9,130.0^12,160.0^27,31]tetratriaconta-3(34),4,6,9(33),10,12,14,24,26,31-decaen-8-yl]acetic acid] yielded an EC50 [1, 3] of 9.72 nM and a Kd (Keap1 (A321-C624) (h)) of 5.51 nM.

Work on `Cc1c2ccc3c1nnn3CCCCOc1ccc3c(c1)CN(Cc1cc(cc(C(F)(F)F)c1)C2CC(=O)O)S(=O)(=O)O3` (single isomer, unassigned) [Example 12b, [31-Methyl-27,27-dioxo-5-(trifluoromethyl)-21,26-dioxa-27λ^6-thia-1,14,15,16-tetraazahexacyclo[20.5.3.1^3,70.1^9,130.0^12,160.0^25,29]dotriaconta-3(32),4,6,9(31),10,12,14,22,24,29-decaen-8-yl]acetic acid] yielded an EC50 [1, 2] of over 3160 nM and a Kd (Keap1 (A321-C624) (h)) of 2920 nM.

`Cc1ccc2cc1CN1Cc3cc(ccc3OS1(=O)=O)OCCN(c1ccccc1)CCn1nnc3c(C)c(ccc31)C2CC(=O)O` (single isomer, unassigned) [Example 58b, [4,32-Dimethyl-28,28-dioxo-19-phenyl-22,27-dioxa-28λ^6-thia-1,14,15,16,19-pentaazahexacyclo[21.5.3.1^3,70.1^9,130.0^12,160.0^26,30]tritriaconta-3(33),4,6,9(32),10,12,14,23,25,30-decaen-8-yl]acetic acid] showed an EC50 [1, 2] of 427 nM and a Kd (Keap1 (A321-C624) (h)) of 12.5 nM.

Molecule `Cc1cc2cc(c1Cl)CN1Cc3cc(ccc3OS1(=O)=O)OCCCCn1nnc3c(C)c(ccc31)C2CC(=O)O` (single isomer, unassigned) [Example 36b, [4-Chloro-5,31-dimethyl-27,27-dioxo-21,26-dioxa-27λ^6-thia-1,14,15,16-tetraazahexacyclo[20.5.3.1^3,70.1^9,130.0^12,160.0^25,29]dotriaconta-3(32),4,6,9(31),10,12,14,22,24,29-decaen-8-yl]acetic acid] has an EC50 [1, 2] of 1260 nM and a Kd (Keap1 (A321-C624) (h)) of 32.5 nM.

In the case of `COc1ccc2cc1[C@@H](C)N1Cc3cc(ccc3OS1(=O)=O)OCCCCCCn1nnc3c(C)c(ccc31)[C@@H]2CC(=O)O` [Example 40b, [(2R,8R)-4-methoxy-2,33-dimethyl-29,29-dioxo-23,28-dioxa-29λ^6-thia-1,14,15,16-tetraazahexacyclo[22.5.3.1^3,70.1^9,130.0^12,160.0^27,31]tetratriaconta-3(34),4,6,9(33),10,12,14,24,26,31-decaen-8-yl]acetic acid], the EC50 [1, 3] is reported as 353 nM and the Kd (Keap1 (A321-C624) (h)) is reported as 22.3 nM.

Work on `COc1ccc2cc1CN1Cc3cc(ccc3OS1(=O)=O)OCc1ccccc1OCCCCn1nnc3c(C)c(ccc31)C2CC(=O)O` (single isomer, unassigned) [Example 53b, [4-Methoxy-39-methyl-35,35-dioxo-21,29,34-trioxa-35λ^6-thia-1,14,15,16-tetraazaheptacyclo[28.5.3.1^3,70.1^9,130.0^12,160.0^22,270.0^33,37]tetraconta-3(40),4,6,9(39),10,12,14,22,24,26,30,32,37-tridecaen-8-yl]acetic acid] yielded an EC50 [1, 2] of 899 nM and a Kd (Keap1 (A321-C624) (h)) of 176 nM.

With `Cc1ccc2cc1[C@@H](C)N1Cc3cc(ccc3OS1(=O)=O)OCCCN(C)CCn1nnc3c(C)c(ccc31)[C@@H]2CC(=O)O` [Example 21b, [(2R,8R)-2,4,19,33-tetramethyl-29,29-dioxo-23,28-dioxa-29λ^6-thia-1,14,15,16,19-pentaazahexacyclo[22.5.3.1^3,70.1^9,130.0^12,160.0^27,31]tetratriaconta-3(34),4,6,9(33),10,12,14,24,26,31-decaen-8-yl]acetic acid] the EC50 [1, 3] was 166 nM and the Kd (Keap1 (A321-C624) (h)) was 20.8 nM.

`COCCC1CCOc2ccc3c(c2)CN([C@H](C)c2cc(ccc2C)[C@H](CC(=O)O)c2ccc4c(nnn4C1)c2C)S(=O)(=O)O3` (single isomer, unassigned) [Example 24a] showed an EC50 [1, 2] of 7.28 nM and a Kd (Keap1 (A321-C624) (h)) of 1.1 nM.
